Experimental findings from patent US5407824A, “Recombinant coryneform bacterium for producing L-tryptophan” (Kyowa Hakko Kogyo Co., Ltd., priority 1989, dated 1995) are described below.

Holding throughout (assay type): biochemical
The subject of experiment [1] is 3-deoxy-D-arabino-heptulosonate-7-phosphate synthase (DS) of the transformant carrying pCGDS1. Description: DS activity, inhibition by phenylalanine and tyrosine, transformant carrying pCGDS1. As to conditions: Corynebacterium glutamicum ATCC 13032 carrying pCGDS1 (DS gene from K38). The procedure:
DS activities of Corynebacterium glutamicum ATCC 13032 and the transformant carrying pCGDS1 were determined according to the method of P. R. Sprinavasan, D. B. Sprinson, et al. [J. Biol. Chem., 234, 716 (1959)].

Experiment [2] addresses T1, anthranilate phosphoribosyl transferase (PRT) encoded by pCtrp57 (Corynebacterium glutamicum, UniProt P06559).
T1 construct: cell enzyme activity
Description: PRT activity, inhibition by tryptophan, TA108 strain carrying pCtrp57. As to conditions: read-out: Tryptophan concentration effective for 50% inhibition of the PRT activity. Here is the method:
(§1) TA108 strain carrying pCtrp1 was cultured in NB medium containing 10 μg/ml kanamycin till the latter stage of the logarithmic growth phase. The grown cells were collected and washed once with 50 mM Tris-maleate buffer solution (pH 6.0) by centrifugation. The washed cells were treated with 400 μg/ml N-methyl-N'-nitro-N-nitrosoguanidine in 50 mM Tris-maleate buffer solution at room temperature for 20 minutes. The treated cells were washed twice with 50 mM Tris-maleate buffer solution by centrifugation and cultured in NB medium containing 10 μg/ml kanamycin at 30° C. for 16 hours. A plasmid DNA was isolated from the grown cells in the same manner as in (1). TA108 strain was transformed with the plasmid thus obtained in the same manner as in (3), and the kanamycin-resistant Colonies grown on RCGP agar medium containing 200 μg/ml kanamycin were scraped up, and washed twice with physiological saline solution by centrifugation. The washed cells were spread on minimal agar medium M1 containing 3 mg/ml 5FT, and cultured at 30° C. for three days. […]
(§2) AS activities of Corynebacterium glutamicum ATCC 13032 and TA108 strains carrying pCtrp1 or pCtrp57 were determined according to the method of H. Hagino, et al. [Agric. Biol. Chem., 39, 323 (1975)], and their PRT activities were determined according to the method of J. Ito and C. […]

Experiment [3] deals with T2, anthranilate synthase (AS) encoded by pCtrp1 (Corynebacterium glutamicum, UniProt P06557).
T2 construct: cell enzyme activity
In words: AS activity, inhibition by tryptophan, TA108 strain carrying pCtrp1. As to conditions: read-out: Tryptophan concentration effective for 50% inhibition of the AS activity. Here is the method: (§3) AS activities of Corynebacterium glutamicum ATCC 13032 and TA108 strains carrying pCtrp1 or pCtrp57 were determined according to the method of H. Hagino, et al. [Agric. Biol. Chem., 39, 323 (1975)], and their PRT activities were determined according to the method of J. Ito and C. Yanofsky [J. Biol. Chem., 97, 734 (1969)]. AS and PRT activities of TA108 strains carrying pCtrp1 or pCtrp57 were more than 10 times as high as those of ATCC 13032 strain.

The target in experiment [4] is T3, anthranilate phosphoribosyl transferase (PRT) of ATCC 39019 strain (Corynebacterium glutamicum, UniProt P06559).
T3 construct: endogenous in cells; host or cells: C. glutamicum, strain printed as ATCC 39019 (ATCC 13032 earlier in the same paragraph)
T3 sequence (P06559 1-348): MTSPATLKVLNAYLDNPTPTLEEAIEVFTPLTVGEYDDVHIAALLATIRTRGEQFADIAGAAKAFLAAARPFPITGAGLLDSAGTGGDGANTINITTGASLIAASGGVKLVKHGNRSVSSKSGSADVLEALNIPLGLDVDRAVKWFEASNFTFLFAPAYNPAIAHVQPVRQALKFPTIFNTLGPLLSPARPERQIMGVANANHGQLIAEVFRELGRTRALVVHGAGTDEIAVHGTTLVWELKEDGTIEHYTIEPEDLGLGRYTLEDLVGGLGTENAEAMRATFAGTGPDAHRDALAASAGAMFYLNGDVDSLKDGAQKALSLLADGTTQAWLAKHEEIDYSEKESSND
In words: PRT activity, inhibition by tryptophan, ATCC 39019 strain. As to conditions: read-out: Tryptophan concentration effective for 50% inhibition of the PRT activity.

For experiment [5], the target named is T4, anthranilate synthase (AS) of ATCC 39019 strain (Corynebacterium glutamicum, UniProt P06557).
T4 construct: endogenous in cells; host or cells: C. glutamicum, strain printed as ATCC 39019 (ATCC 13032 earlier in the same paragraph)
Description: AS activity, inhibition by tryptophan, ATCC 39019 strain. As to conditions: read-out: Tryptophan concentration effective for 50% inhibition of the AS activity.

Experiment [6] has as its target T5, anthranilate phosphoribosyl transferase (PRT) encoded by pCtrp1 (Corynebacterium glutamicum, UniProt P06559).
T5 construct: presence of the AS, PRT, TS-α and TS-β genes in the above 11.0 Kb DNA fragment introduced into pCtrp1; expressed in transfected cells; host or cells: C. glutamicum TA108 carrying pCtrp1
T5 sequence (P06559 1-348): T3 sequence (P06559 1-348)
Description: PRT activity, inhibition by tryptophan, TA108 strain carrying pCtrp1. As to conditions: read-out: Tryptophan concentration effective for 50% inhibition of the PRT activity. The procedure: as §3

For experiment [7], the target named is T6, anthranilate synthase (AS) encoded by pCtrp57 (Corynebacterium glutamicum, UniProt P06557).
T6 construct: cell enzyme activity
In words: AS activity, inhibition by tryptophan, TA108 strain carrying pCtrp57. The conditions noted are these: read-out: Tryptophan concentration effective for 50% inhibition of the AS activity. The procedure:
as §1, §2

T4 sequence (P06557 whole entry): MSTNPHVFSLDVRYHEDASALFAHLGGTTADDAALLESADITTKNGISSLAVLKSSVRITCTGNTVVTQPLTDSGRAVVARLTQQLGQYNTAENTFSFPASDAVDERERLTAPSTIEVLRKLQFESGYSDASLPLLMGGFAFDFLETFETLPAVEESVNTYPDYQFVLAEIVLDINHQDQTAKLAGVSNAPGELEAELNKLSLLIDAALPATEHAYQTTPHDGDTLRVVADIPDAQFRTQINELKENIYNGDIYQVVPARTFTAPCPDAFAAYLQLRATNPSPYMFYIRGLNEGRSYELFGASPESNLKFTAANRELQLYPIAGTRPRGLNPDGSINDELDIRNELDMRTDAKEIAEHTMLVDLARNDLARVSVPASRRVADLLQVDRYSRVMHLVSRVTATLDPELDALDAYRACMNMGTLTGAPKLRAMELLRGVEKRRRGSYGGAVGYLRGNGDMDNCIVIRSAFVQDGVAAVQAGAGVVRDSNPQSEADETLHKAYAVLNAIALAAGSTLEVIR
T4 sequence (P06558 whole entry partner): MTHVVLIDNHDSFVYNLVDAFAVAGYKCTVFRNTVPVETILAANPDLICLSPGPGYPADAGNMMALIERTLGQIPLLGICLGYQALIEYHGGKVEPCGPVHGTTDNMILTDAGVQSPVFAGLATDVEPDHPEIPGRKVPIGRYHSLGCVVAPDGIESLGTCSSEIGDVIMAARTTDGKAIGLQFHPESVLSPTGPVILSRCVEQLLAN
T6 sequence (P06558 whole entry): as the sequence (P06558 whole entry partner) above
T6 sequence (P06557 whole entry): as the sequence (P06557 whole entry) above
T2 sequence (P06558 whole entry): as the sequence (P06558 whole entry partner) above
T2 sequence (P06557 whole entry): as the sequence (P06557 whole entry) above

As for `N[C@@H](Cc1ccccc1)C(=O)O` [phenylalanine], in experiment [1], the “Inhibition of DS in the transformant carrying pCGDS1” value is listed as “free from inhibition”.
As to `N[C@@H](Cc1c[nH]c2ccccc12)C(=O)O` [tryptophan], the IC50 came to 4800 µM in experiment [2]; 8 µM in experiment [3]; 190 µM in experiment [4]; 2 µM in experiment [5]; 190 µM in experiment [6]; 4000 µM in experiment [7].
Take `N[C@@H](Cc1ccc(O)cc1)C(=O)O` [tyrosine]: the “Inhibition of DS in the transformant carrying pCGDS1” value in experiment [1] was “free from inhibition”.
